Consider three molecules from ChEMBL document CHEMBL3886248, “Selective androgen receptor modulators” (2015).

This assay deals with T1, Androgen receptor (Rattus norvegicus, UniProt P15207).
T1 sequence (P15207 whole entry): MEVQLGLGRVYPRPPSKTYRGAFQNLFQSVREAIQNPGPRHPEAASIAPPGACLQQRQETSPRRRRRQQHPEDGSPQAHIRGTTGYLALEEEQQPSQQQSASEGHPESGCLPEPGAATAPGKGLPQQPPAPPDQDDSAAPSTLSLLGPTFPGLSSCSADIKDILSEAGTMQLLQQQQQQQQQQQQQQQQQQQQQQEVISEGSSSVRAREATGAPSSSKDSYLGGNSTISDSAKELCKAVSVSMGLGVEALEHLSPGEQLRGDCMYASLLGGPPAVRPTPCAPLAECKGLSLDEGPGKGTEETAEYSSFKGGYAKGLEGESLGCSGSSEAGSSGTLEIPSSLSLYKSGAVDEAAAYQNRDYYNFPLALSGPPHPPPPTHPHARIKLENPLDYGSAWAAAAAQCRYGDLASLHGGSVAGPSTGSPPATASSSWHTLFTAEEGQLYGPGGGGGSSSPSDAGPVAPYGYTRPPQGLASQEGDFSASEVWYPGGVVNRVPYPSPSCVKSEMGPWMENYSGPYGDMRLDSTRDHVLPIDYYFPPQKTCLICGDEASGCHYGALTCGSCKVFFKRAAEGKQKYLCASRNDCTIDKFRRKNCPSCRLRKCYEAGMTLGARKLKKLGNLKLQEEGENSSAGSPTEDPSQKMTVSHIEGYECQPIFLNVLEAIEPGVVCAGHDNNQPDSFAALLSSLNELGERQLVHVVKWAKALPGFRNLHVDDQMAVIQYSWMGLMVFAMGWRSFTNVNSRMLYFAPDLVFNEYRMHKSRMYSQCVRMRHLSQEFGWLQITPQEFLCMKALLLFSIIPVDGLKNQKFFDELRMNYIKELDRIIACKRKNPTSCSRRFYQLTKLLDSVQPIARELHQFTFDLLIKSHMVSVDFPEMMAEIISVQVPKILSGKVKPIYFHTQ
In words: The assay was performed as specified by the manufacturer (Invitrogen, Madison, Wis.). Briefly, 1 ul of 10 mM compound was added to 500 ul of AR screening buffer in a 1.5 ml eppendorf tube to make a 2x10E-5M stock. 10-fold serial dilutions of the test compounds were prepared ranging in concentration from 10E-5M to 10E-12M. Each dilution was added in triplicate to a black 384-microtiter plate. The test compounds will be diluted 2-fold in the final reaction. 2x AR-Fluormone complex was prepared with 2 nM Flourmone AL Green and 30 nM AR. 25 ul of 2x complex was aliquoted to each reaction well, such that the final reaction volume was 50 ul per well.
In the case of `Cc1c(N2C(=O)OC[C@@H]2[C@@H](O)C(F)(F)F)ccc(C#N)c1C(F)(F)F`, the IC50 is more than 1000 nM. Consider `C[C@@H]1OC(=O)N(c2ccc(C#N)c(C(F)(F)F)c2)[C@H]1[C@@H](O)C(F)(F)F`, for which 72 nM corresponded to half-maximal inhibition (IC50). For `C[C@@H]1OC(=O)N(c2ccc(C#N)c(C(F)(F)F)c2)[C@H]1[C@H](O)C(F)(F)F` the value was 4 nM.

Usually IC50 stands for the point on the concentration scale where inhibition reaches its midpoint.
